From ChEMBL document CHEMBL4665702, “Cacalol Acetate, a Sesquiterpene from Psacalium decompositum, Exerts an Anti-inflammatory Effect through LPS/NF-KB Signaling in Raw 264.7 Macrophages” (2020) come the findings set out here.

In experiment [1] the test system is RAW264.7. Nature of the experiment: Anti-inflammatory activity in mouse RAW264.7 cells assessed as inhibition of LPS-induced IL-1beta mRNA expression at 10 uM preincubated for 1 hr followed by LPS administration measured after 3 hrs by RT-PCR analysis. The settings on record: time 4.0 hrs. The class given is functional, cell-based.
For experiment [2], the system named is RAW264.7. In words: Anti-inflammatory activity in mouse RAW264.7 cells assessed as inhibition of LPS-induced IL-1beta production at 10 uM preincubated for 1 hr followed by LPS administration measured after 3 hrs by ELISA. The class given is functional, cell-based. The settings on record: time 4.0 hrs. For orientation: In an ELISA, binding on a coated surface is turned into a signal by an enzyme label.

The subject of experiment [3] is RAW264.7. In words: Anti-inflammatory activity in mouse RAW264.7 cells assessed as inhibition of LPS-induced IL-6 mRNA expression at 10 uM preincubated for 1 hr followed by LPS administration measured after 3 hrs by RT-PCR analysis. The class given is functional, cell-based. The settings on record: time 4.0 hrs.
Experiment [4] concerns the target Transcription factor p65 (Mus musculus) (UniProt Q04207). In words: Inhibition of p65 phosphorylation at Ser536 residues in LPS-induced mouse RAW 264.7 cells at 10 uM preincubated for 1 hr followed by LPS administration measured after 25 mins by Western blot analysis relative to control. The settings on record: RAW264.7, dose 100.0 µM, time 85.0 min.
Target sequence in this assay (Q04207 whole entry, looked up): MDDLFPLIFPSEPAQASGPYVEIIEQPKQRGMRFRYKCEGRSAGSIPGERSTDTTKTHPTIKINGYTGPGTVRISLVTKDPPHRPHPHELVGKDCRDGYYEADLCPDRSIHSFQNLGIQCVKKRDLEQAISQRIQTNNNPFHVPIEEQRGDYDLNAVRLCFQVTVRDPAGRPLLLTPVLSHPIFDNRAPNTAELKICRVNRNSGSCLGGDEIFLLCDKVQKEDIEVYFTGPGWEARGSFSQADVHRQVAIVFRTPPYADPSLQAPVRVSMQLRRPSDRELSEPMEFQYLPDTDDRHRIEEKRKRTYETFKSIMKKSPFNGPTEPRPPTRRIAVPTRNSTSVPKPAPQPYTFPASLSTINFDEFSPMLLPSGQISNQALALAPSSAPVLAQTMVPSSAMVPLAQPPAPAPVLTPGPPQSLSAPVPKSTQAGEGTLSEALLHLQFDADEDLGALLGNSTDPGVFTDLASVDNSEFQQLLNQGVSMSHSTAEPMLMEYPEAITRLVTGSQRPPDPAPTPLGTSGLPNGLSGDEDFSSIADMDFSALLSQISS
Experiment [5] deals with RAW264.7. In words: Anti-inflammatory activity in mouse RAW264.7 cells assessed as inhibition of LPS-induced IL-6 production at 10 uM preincubated for 1 hr followed by LPS administration measured after 3 hrs by ELISA. The experiment is classed as functional, cell-based. The settings on record: time 4.0 hrs.
Experiment [6] concerns RAW264.7. Nature of the experiment: Anti-inflammatory activity in mouse RAW264.7 cells assessed as inhibition of LPS-induced TNF-alpha mRNA expression at 10 uM preincubated for 1 hr followed by LPS administration measured after 3 hrs by RT-PCR analysis. The experiment is classed as functional, cell-based. The settings on record: time 4.0 hrs.
Experiment [7] has as its system RAW264.7. Nature of the experiment: Anti-inflammatory activity in mouse RAW264.7 cells assessed as inhibition of LPS-induced TNF-alpha production at 10 uM preincubated for 1 hr followed by LPS administration measured after 3 hrs by ELISA. The experiment is classed as functional, cell-based. The settings on record: time 4.0 hrs.
In experiment [8] the target is T1, Inhibitor of nuclear factor kappa-B kinase subunit beta (Mus musculus) (UniProt O88351).
T1 sequence (whole entry): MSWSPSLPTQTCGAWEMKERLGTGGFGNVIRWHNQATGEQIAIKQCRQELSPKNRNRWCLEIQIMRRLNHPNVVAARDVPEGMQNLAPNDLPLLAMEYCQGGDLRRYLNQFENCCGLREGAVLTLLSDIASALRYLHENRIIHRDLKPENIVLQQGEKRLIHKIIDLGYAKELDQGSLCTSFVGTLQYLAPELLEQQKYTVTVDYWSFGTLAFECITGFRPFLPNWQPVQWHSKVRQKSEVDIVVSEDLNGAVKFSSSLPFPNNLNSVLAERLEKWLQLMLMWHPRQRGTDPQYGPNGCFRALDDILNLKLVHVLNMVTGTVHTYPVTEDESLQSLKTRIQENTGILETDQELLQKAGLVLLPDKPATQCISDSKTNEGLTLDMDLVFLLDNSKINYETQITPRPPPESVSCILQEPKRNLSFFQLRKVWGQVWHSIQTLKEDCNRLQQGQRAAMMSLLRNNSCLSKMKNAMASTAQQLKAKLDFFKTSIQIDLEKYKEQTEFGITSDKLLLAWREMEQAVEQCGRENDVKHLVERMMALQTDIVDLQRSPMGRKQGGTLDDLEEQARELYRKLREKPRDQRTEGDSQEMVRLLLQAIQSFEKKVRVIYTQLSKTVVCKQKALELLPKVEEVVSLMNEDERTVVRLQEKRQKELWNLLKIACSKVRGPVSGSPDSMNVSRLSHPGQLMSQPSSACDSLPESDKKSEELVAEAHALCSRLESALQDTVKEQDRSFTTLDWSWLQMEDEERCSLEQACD
In words: Inhibition of IKK-beta phosphorylation at Ser176/177 residues in LPS-induced mouse RAW 264.7 cells at 10 uM preincubated for 1 hr followed by LPS administration measured after 25 mins by Western blot analysis relative to control. The following applies: RAW264.7, time 85.0 min. On the technique in general: In western blotting, separated proteins are transferred to a membrane and probed.

Experiment [9] relates to RAW264.7. Nature of the experiment: Anti-inflammatory activity in mouse RAW264.7 cells assessed as inhibition of LPS-induced COX2 mRNA expression at 50 to 100 uM preincubated for 90 mins followed by LPS administration measured after 3 hrs by RT-qPCR analysis. The class given is functional, cell-based. The following applies: dose microM 50-100, time 270.0 min. Background: Quantitative PCR measures a nucleic acid by following its amplification.

Experiment [10] deals with RAW264.7. Nature of the experiment: Anti-inflammatory activity in mouse RAW264.7 cells assessed as inhibition of LPS-induced IL-1beta production at 50 to 100 uM preincubated for 1 hr followed by LPS administration measured after 3 hrs by ELISA. The settings on record: dose microM 50-100, time 4.0 hrs. The experiment is classed as functional, cell-based.
The subject of experiment [11] is RAW264.7. Nature of the experiment: Anti-inflammatory activity in mouse RAW264.7 cells assessed as inhibition of LPS-induced COX2 protein level at 50 to 100 uM preincubated for 90 mins followed by LPS administration measured after 3 hrs by RT-qPCR analysis relative to control. The class given is functional. The settings on record: dose microM 50-100; time 270 min; 4.5 h.

Experiment [12] deals with Mus musculus. Nature of the experiment: Anti-inflammatory activity in TPA-induced CD-1 mouse ear edema model assessed as inhibition of ear edema at 1 mg relative to control. The class given is functional.
Experiment [13] concerns the target Transcription factor p65 (Mus musculus) (UniProt Q04207). In words: Inhibition of p65 phosphorylation at Ser536 residues in LPS-induced mouse RAW 264.7 cells at 100 uM preincubated for 1 hr followed by LPS administration measured after 25 mins by Western blot analysis relative to control. The settings on record: RAW264.7, time 85.0 min.
Target sequence in this assay (Q04207 whole entry): as the sequence (Q04207 whole entry, looked up) above
Experiment [14] deals with RAW264.7. In words: Anti-inflammatory activity in mouse RAW264.7 cells assessed as inhibition of LPS-induced IL-1beta mRNA expression at 50 to 100 uM preincubated for 1 hr followed by LPS administration measured after 3 hrs by RT-PCR analysis. The experiment is classed as functional, cell-based. The following applies: dose microM 50-100, time 4.0 hrs.
Experiment [15] concerns RAW264.7. In words: Anti-inflammatory activity in mouse RAW264.7 cells assessed as inhibition of LPS-induced IL-6 mRNA expression at 50 to 100 uM preincubated for 1 hr followed by LPS administration measured after 3 hrs by RT-PCR analysis. The experiment is classed as functional, cell-based. The settings on record: dose microM 50-100, time 4.0 hrs.
In experiment [16] the target is T1, Inhibitor of nuclear factor kappa-B kinase subunit beta (Mus musculus). In words: Inhibition of IKK-beta phosphorylation at Ser176/177 residues in LPS-induced mouse RAW 264.7 cells at 50 to 100 uM preincubated for 1 hr followed by LPS administration measured after 25 mins by Western blot analysis. The following applies: RAW264.7, dose microM 50-100, time 85.0 min.

Experiment [17] relates to RAW264.7. In words: Anti-inflammatory activity in mouse RAW264.7 cells assessed as inhibition of LPS-induced COX2 level at 50 to 100 uM preincubated for 90 mins followed by LPS administration measured after 3 hrs by fluorimetric analysis relative to control. The experiment is classed as functional. The settings on record: dose microM 50-100; time 270 min; 4.5 h.
Experiment [18] has as its system RAW264.7. In words: Inhibition of NFkappaB in mouse RAW 264.7 cells assessed as reduction in LPS-induced transcriptional activation at 50 uM preincubated for 1 hr followed by LPS administration measured after 25 mins by EMSA relative to control. The class given is cell-based. The settings on record: time 85.0 min.
For experiment [19], the system named is RAW264.7. In words: Anti-inflammatory activity in mouse RAW264.7 cells assessed as inhibition of LPS-induced TNF-alpha production at 50 to 100 uM preincubated for 1 hr followed by LPS administration measured after 3 hrs by ELISA. The experiment is classed as functional, cell-based. The settings on record: dose microM 50-100, time 4.0 hrs.
Experiment [20] deals with Mus musculus. In words: Anti-inflammatory activity in TPA-induced CD-1 mouse ear edema model assessed as ear weight at 1 mg. The experiment is classed as functional.
For experiment [21], the system named is RAW264.7. In words: Anti-inflammatory activity in mouse RAW264.7 cells assessed as inhibition of LPS-induced TNF-alpha mRNA expression at 50 to 100 uM preincubated for 1 hr followed by LPS administration measured after 3 hrs by RT-PCR analysis. The experiment is classed as functional, cell-based. The settings on record: dose microM 50-100, time 4.0 hrs.
The test system of experiment [22] is RAW264.7. In words: Anti-inflammatory activity in mouse RAW264.7 cells assessed as inhibition of LPS-induced IL-6 production at 50 to 100 uM preincubated for 1 hr followed by LPS administration measured after 3 hrs by ELISA. The experiment is classed as functional, cell-based. The following applies: dose microM 50-100, time 4.0 hrs.
Experiment [23] has as its system RAW264.7. In words: Inhibition of NFkappaB in mouse RAW 264.7 cells assessed as reduction in LPS-induced transcriptional activation at 100 uM preincubated for 1 hr followed by LPS administration measured after 25 mins by EMSA relative to control. The experiment is classed as cell-based. The settings on record: time 85.0 min.

Active and inactive are the calls of the source. The calls are words filed in the database; no cut-off is given here.

On to `CC(C)(C)c1ccc(S(=O)(=O)/C=C/C#N)cc1`, for which the inhibition entry in the experiment on RAW264.7 [1], with RAW264.7 [2], in the experiment on RAW264.7 [3], in the experiment with RAW264.7 [5], with RAW264.7 [6] and with RAW264.7 [7] was “Active” each time. The results for the fold change (FC) in experiment [4] and in experiment [8] were 0.1 and 1.5, respectively.
Turning to `CC(=O)Oc1c2c(c(C)c3c(C)coc13)[C@@H](C)CCC2`, the inhibition result in the experiment with RAW264.7 [9], with RAW264.7 [10], in the experiment on RAW264.7 [14], in the experiment with RAW264.7 [15], in the experiment with RAW264.7 [19] and in the experiment with RAW264.7 [21] was “Active” in each case. For the same compound, in the experiment with RAW264.7 [22], the inhibition result is “Active”. Besides, the “fold change (FC)” value is 2 in the experiment on RAW264.7 [11]; 0.2 in experiment [13]; 2.5 in the experiment with RAW264.7 [17]; 1.7 in the experiment on RAW264.7 [18]; 2.1 in the experiment on RAW264.7 [23]. Also, the “inhibition (INH)” value with Mus musculus [12] came out at 70.3%. Also, the inhibition entry in experiment [16] is “inactive”. The Activity in the experiment with Mus musculus [20] came out at 6.56 mg.
On to `COc1ccc2c(c1)c(CC(=O)O)c(C)n2C(=O)c1ccc(Cl)cc1` [INDOMETHACIN], for which the “inhibition (INH)” value in the experiment with Mus musculus [12] was found to be 78.6%. The Activity with Mus musculus [20] amounted to 4.05 mg.
For `Cc1coc2c(O)c3c(c(C)c12)[C@@H](C)CCC3` [CACALOL], in that order: 48.5% and 8.55 mg.
